Measurements: patent US20190175744A1, “INSULIN-INCRETIN CONJUGATES” (Merck Sharp & Dohme Corp., priority 2016, published 2019)
Like-named read-outs stand apart in the source and are kept apart here.

Assays:
human GCGR = molecular target: T1, human GCGR (Homo sapiens, UniProt P47871); test: cAMP activity assay, cells expressing human GCGR; format: cell-based; conditions: for GCGR/GLP1R ratio: Table 5, ratio of hGCGR EC50 to hGLP1R EC50;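 as to all read-outs here: cAMP production read by luminescence after one hour of peptide exposure at room temperature, EC50 from logistic curve fit, native glucagon and GLP-1 as control peptides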
T1 construct: expressed in transfected cells; grown with Blasticidin and Hygromycin
T1 sequence (P47871 26-477): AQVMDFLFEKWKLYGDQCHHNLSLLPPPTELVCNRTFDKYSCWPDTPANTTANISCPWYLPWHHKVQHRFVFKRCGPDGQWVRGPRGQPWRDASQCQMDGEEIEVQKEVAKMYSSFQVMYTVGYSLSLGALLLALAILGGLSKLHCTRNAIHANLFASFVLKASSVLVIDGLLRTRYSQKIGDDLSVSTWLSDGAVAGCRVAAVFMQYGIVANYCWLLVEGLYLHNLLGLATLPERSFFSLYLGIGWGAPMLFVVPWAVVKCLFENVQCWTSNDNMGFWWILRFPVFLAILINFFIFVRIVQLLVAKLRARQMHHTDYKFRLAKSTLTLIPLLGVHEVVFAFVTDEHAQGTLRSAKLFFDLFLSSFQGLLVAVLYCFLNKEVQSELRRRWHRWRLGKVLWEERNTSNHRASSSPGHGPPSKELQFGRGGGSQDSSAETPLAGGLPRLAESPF

human GLP1R = human GLP1R (Homo sapiens, UniProt P43220); test: cAMP activity assay, cells expressing human GLP1R; format: cell-based
Chain of human GLP1R (P43220 24-463): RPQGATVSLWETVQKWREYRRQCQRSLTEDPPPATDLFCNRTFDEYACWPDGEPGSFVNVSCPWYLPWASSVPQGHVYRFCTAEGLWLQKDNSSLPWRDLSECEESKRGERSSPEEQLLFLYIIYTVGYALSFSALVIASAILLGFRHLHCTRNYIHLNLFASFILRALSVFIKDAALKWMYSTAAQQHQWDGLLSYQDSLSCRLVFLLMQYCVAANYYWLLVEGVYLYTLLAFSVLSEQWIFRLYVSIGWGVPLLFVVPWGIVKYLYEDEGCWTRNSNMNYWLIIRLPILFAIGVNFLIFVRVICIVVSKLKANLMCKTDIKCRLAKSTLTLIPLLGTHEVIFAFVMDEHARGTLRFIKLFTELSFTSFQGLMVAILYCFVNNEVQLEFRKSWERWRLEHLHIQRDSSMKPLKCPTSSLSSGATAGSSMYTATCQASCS
Description: Activity of the incretin peptides or the conjugates at the Glucagon receptor (GCGR) and GLP-1 receptor (GLP1R) may be measured in a cAMP activity assay as follows.
Peptides are dissolved in 100% DMSO and serially diluted to generate 10 point titrations. The peptide solutions are then transferred into 384-well assay plates (150 nL/well). Assay ready frozen cells expressing human GLP1R or human GCGR are suspended in growth media consisting of DMEM medium (GIBCO), 10% FBS (GIBCO), 1×NEAA(GIBCO), 1×P/S (GIBCO), 10 μg/mL Blasticidin (GIBCO) and 200 μg/mL Hygromycin (GIBCO). […] The cell suspensions (15 μL) are then added to the assay plates containing the peptide solutions (30,000 cells/well for human GCGR; 10,000 cells/well for human GLP1R). The cells are incubated for one hour at room temperature in the dark.
Production of cAMP may be determined using HitHunterr cAMPXS kits (DiscoverX) following the manufacturer's protocol. The plates are incubated for overnight at room temperature in the dark. Luminescence may be measured using an EnVision Multilabel plate reader (Perkin Elmer). Native GLP-1 and Glucagon (Bachem) may be used as control peptides. EC50 values may be calculated using uses a 4 parameter logistic fit based on the Levenberg-Marquardt algorithm.

[1] = Table 5, incretin peptides, cAMP, read-out: hGCGR_EC50
[2] = Table 5, incretin peptides, cAMP, read-out: hGLP1R EC50

| EC50 (human GCGR; [1]) [nM] | EC50 (human GLP1R; [2]) [nM] | Compound | GCGR/GLP1R ratio (human GCGR) | other results |
| --- | --- | --- | --- | --- |
| 0.06 | 0.04 | CCCCCCCCCCCCCCCC(=O)N[C@@H](CCC(=O)N[C@@H](CCC(=O)NCCCC[C@H](NC(=O)[C@H](CC(=O)O)NC(=O)[C@H](CO)NC(=O)[C@@H](NC(=O)[C@H](Cc1ccccc1)NC(=O)[C@@H](NC(=O)CNC(=O)[C@H](CCC(N)=O)NC(=O)[C@@H](CO)NC(=O)[C@@H](N)Cc1c[nH]cn1)[C@@H](C)O)[C@@H](C)O)C(=O)N[C@@H](CO)C(=O)N[C@@H](CCCCN)C(=O)N[C@@H](Cc1ccc(O)cc1)C(=O)N[C@@H](CC(C)C)C(=O)N[C@@H](CC(=O)O)C(=O)N[C@@H](CCC(=O)O)C(=O)N[C@@H](CCCNC(=N)N)C(=O)N[C@@H](C)C(=O)N[C@@H](C)C(=O)N[C@@H](CCC(N)=O)C(=O)N[C@@H](CC(=O)O)C(=O)N[C@@H](Cc1ccccc1)C(=O)N[C@H](C(=O)N[C@@H](CCCCN=[N+]=[N-])C(=O)N[C@@H](Cc1c[nH]c2ccccc12)C(=O)N[C@@](C)(CC(C)C)C(=O)N[C@@H](CCS(C)(=O)=O)C(=O)N[C@@H](CC(=O)O)C(=O)N[C@H](C(N)=O)[C@@H](C)O)C(C)C)C(=O)O)C(=O)O [PEP37] | 1.5 |  |
|  |  | CCCCCCCCCCCCCCCC(=O)N[C@@H](CCC(=O)N[C@@H](CCC(=O)NCCCC[C@H](NC(=O)[C@H](CC(=O)O)NC(=O)[C@H](CO)NC(=O)[C@@H](NC(=O)[C@H](Cc1ccccc1)NC(=O)[C@@H](NC(=O)CNC(=O)[C@H](CCC(=O)O)NC(=O)[C@@H](CO)NC(=O)[C@@H](N)Cc1c[nH]cn1)[C@@H](C)O)[C@@H](C)O)C(=O)N[C@@H](CO)C(=O)N[C@@H](CCCCN)C(=O)N[C@@H](Cc1ccc(O)cc1)C(=O)N[C@@H](CC(C)C)C(=O)N[C@@H](CC(=O)O)C(=O)N[C@@H](CCC(=O)O)C(=O)N[C@@H](CCCNC(=N)N)C(=O)N[C@@H](C)C(=O)N[C@@H](C)C(=O)N[C@@H](CCC(N)=O)C(=O)N[C@@H](CC(=O)O)C(=O)N[C@@H](Cc1ccccc1)C(=O)N[C@H](C(=O)N[C@@H](CCCCN=[N+]=[N-])C(=O)N[C@@H](Cc1c[nH]c2ccccc12)C(=O)N[C@@H](CC(C)C)C(=O)N[C@@H](CC(C)C)C(=O)N[C@@H](CC(=O)O)C(=O)N[C@H](C(N)=O)[C@@H](C)O)C(C)C)C(=O)O)C(=O)O [PEP75] | >72 | EC50 (human GCGR): > 5 nM; EC50 (human GLP1R): 0.07 nM |
| 0.21 | 0.03 | CC(C)C[C@H](NC(=O)[C@H](Cc1c[nH]c2ccccc12)NC(=O)[C@H](CCC(N)=O)NC(=O)[C@@H](NC(=O)[C@H](Cc1ccccc1)NC(=O)[C@H](CC(=O)O)NC(=O)[C@H](CCC(N)=O)NC(=O)[C@H](C)NC(=O)[C@H](C)NC(=O)[C@H](CCCNC(=N)N)NC(=O)C(C)(C)NC(=O)[C@H](CC(=O)O)NC(=O)[C@H](CC(C)C)NC(=O)[C@H](Cc1ccc(O)cc1)NC(=O)[C@H](CCCCN)NC(=O)[C@H](CO)NC(=O)[C@H](Cc1ccc(O)cc1)NC(=O)[C@H](CC(=O)O)NC(=O)[C@H](CO)NC(=O)[C@@H](NC(=O)[C@H](Cc1ccccc1)NC(=O)[C@@H](NC(=O)CNC(=O)[C@H](CCC(N)=O)NC(=O)C(C)(C)NC(=O)[C@@H](N)Cc1c[nH]cn1)[C@@H](C)O)[C@@H](C)O)C(C)C)C(=O)N[C@@H](CC(C)C)C(=O)N[C@@H](CC(=O)O)C(=O)N[C@H](C(=O)N[C@@H](CCCCN)C(=O)N[C@@H](CCCCN=[N+]=[N-])C(N)=O)[C@@H](C)O [PEP18] | 6.7 |  |
| 0.05 | 0.05 | CCCCCCCCCCCCCCCC(=O)N[C@@H](CCC(=O)N[C@@H](CCC(=O)NCCCC[C@H](NC(=O)[C@H](CC(=O)O)NC(=O)[C@H](CO)NC(=O)[C@@H](NC(=O)[C@H](Cc1ccccc1)NC(=O)[C@@H](NC(=O)CNC(=O)[C@H](CCC(N)=O)NC(=O)[C@@H](CO)NC(=O)[C@@H](N)Cc1c[nH]cn1)[C@@H](C)O)[C@@H](C)O)C(=O)N[C@@H](CO)C(=O)N[C@@H](CCCCN)C(=O)N[C@@H](Cc1ccc(O)cc1)C(=O)N[C@@H](CC(C)C)C(=O)N[C@@H](CC(=O)O)C(=O)N[C@@H](CCC(=O)O)C(=O)N[C@@H](CCCNC(=N)N)C(=O)N[C@@H](C)C(=O)N[C@@H](C)C(=O)N[C@@H](CCC(N)=O)C(=O)N[C@@H](CC(=O)O)C(=O)N[C@@](C)(Cc1ccccc1)C(=O)N[C@H](C(=O)N[C@@H](CCCCN=[N+]=[N-])C(=O)N[C@@H](Cc1c[nH]c2ccccc12)C(=O)N[C@@H](CC(C)C)C(=O)N[C@@H](CCS(C)(=O)=O)C(=O)N[C@@H](CC(=O)O)C(=O)N[C@H](C(N)=O)[C@@H](C)O)C(C)C)C(=O)O)C(=O)O [PEP35] | 1.0 |  |
|  |  | CCCCCCCCCCCCCCCC(=O)N[C@@H](CCC(=O)N[C@@H](CCC(=O)NCCCC[C@H](NC(=O)[C@](C)(CC(=O)O)NC(=O)[C@H](CO)NC(=O)[C@@H](NC(=O)[C@H](Cc1ccccc1)NC(=O)[C@@H](NC(=O)CNC(=O)[C@H](CCC(N)=O)NC(=O)[C@@H](CO)NC(=O)[C@@H](N)Cc1c[nH]cn1)[C@@H](C)O)[C@@H](C)O)C(=O)N[C@@H](CO)C(=O)N[C@@H](CCCCN)C(=O)N[C@@H](Cc1ccc(O)cc1)C(=O)N[C@@H](CC(C)C)C(=O)N[C@@H](CC(=O)O)C(=O)N[C@@H](CCC(=O)O)C(=O)N[C@@H](CCCNC(=N)N)C(=O)N[C@@H](C)C(=O)N[C@@H](C)C(=O)N[C@@H](CCC(N)=O)C(=O)N[C@@H](CC(=O)O)C(=O)N[C@@H](Cc1ccccc1)C(=O)N[C@H](C(=O)N[C@@H](CCCCN=[N+]=[N-])C(=O)N[C@@H](Cc1c[nH]c2ccccc12)C(=O)N[C@@H](CC(C)C)C(=O)N[C@@H](CCS(C)(=O)=O)C(=O)N[C@@H](CC(=O)O)C(=O)N[C@H](C(N)=O)[C@@H](C)O)C(C)C)C(=O)O)C(=O)O [PEP32] | 1.5 | EC50 (human GCGR): 0.06 nM; EC50 (human GLP1R): 0.04 nM |
|  |  | HsQGTGTSD-K(γEγEC16)SKYLDURAAQDFV-Nle(ϵN3)-WLLDT-NH2 [PEP7] | 0.2 |  |
|  |  | CC(C)C[C@H](NC(=O)[C@H](Cc1ccc(O)cc1)NC(=O)[C@H](CCCCN)NC(=O)[C@H](CO)NC(=O)[C@H](CCCCN)NC(=O)[C@H](CC(=O)O)NC(=O)[C@H](CO)NC(=O)[C@@H](NC(=O)[C@H](Cc1ccccc1)NC(=O)[C@@H](NC(=O)CNC(=O)[C@H](CCC(N)=O)NC(=O)[C@@H](CO)NC(=O)[C@@H](N)Cc1c[nH]cn1)[C@@H](C)O)[C@@H](C)O)C(=O)N[C@@H](CC(=O)O)C(=O)N[C@@H](CCC(=O)O)C(=O)N[C@@H](CCCNC(=N)N)C(=O)N[C@@H](C)C(=O)N[C@@H](C)C(=O)N[C@@H](CCC(N)=O)C(=O)N[C@@H](CC(=O)O)C(=O)N[C@@H](Cc1ccccc1)C(=O)N[C@H](C(=O)N[C@@H](CCC(N)=O)C(=O)N[C@@H](Cc1c[nH]c2ccccc12)C(=O)N[C@@H](CC(C)C)C(=O)N[C@@H](CC(C)C)C(=O)N[C@@H](CC(=O)O)C(=O)N[C@H](C(=O)N[C@@H](CCCCN=[N+]=[N-])C(N)=O)[C@@H](C)O)C(C)C [PEP73] | 0.6 |  |
|  |  | CC(C)C[C@H](NC(=O)[C@H](Cc1ccc(O)cc1)NC(=O)[C@H](CCCCN)NC(=O)[C@H](CO)NC(=O)[C@H](CCCCNC(=O)COCCOCCNC(=O)COCCOCCNC(=O)CC[C@H](NC(=O)CCCCCCCCCCCCCCCCC(=O)O)C(=O)O)NC(=O)[C@H](CC(=O)O)NC(=O)[C@H](CO)NC(=O)[C@@H](NC(=O)[C@H](Cc1ccccc1)NC(=O)[C@@H](NC(=O)CNC(=O)[C@H](CCC(N)=O)NC(=O)[C@@H](CO)NC(=O)[C@@H](N)Cc1c[nH]cn1)[C@@H](C)O)[C@@H](C)O)C(=O)N[C@@H](CC(=O)O)C(=O)N[C@@H](CCC(=O)O)C(=O)N[C@@H](CCCNC(=N)N)C(=O)N[C@@H](C)C(=O)N[C@@H](C)C(=O)N[C@@H](CCC(N)=O)C(=O)N[C@@H](CC(=O)O)C(=O)N[C@@H](Cc1ccccc1)C(=O)N[C@H](C(=O)N[C@@H](CCCCN=[N+]=[N-])C(=O)N[C@@H](Cc1c[nH]c2ccccc12)C(=O)N[C@@H](CC(C)C)C(=O)N[C@@H](CC(C)C)C(=O)N[C@@H](CC(=O)O)C(=O)N[C@H](C(N)=O)[C@@H](C)O)C(C)C [PEP29] | 1.0 |  |
|  |  | CC(C)C[C@H](NC(=O)[C@H](Cc1ccc(O)cc1)NC(=O)[C@H](CCCCN)NC(=O)[C@H](CO)NC(=O)[C@H](Cc1ccc(O)cc1)NC(=O)[C@H](CC(=O)O)NC(=O)[C@H](CO)NC(=O)[C@@H](NC(=O)[C@H](Cc1ccccc1)NC(=O)[C@@H](NC(=O)CNC(=O)[C@H](CCC(N)=O)NC(=O)C(C)(C)NC(=O)[C@@H](N)Cc1c[nH]cn1)[C@@H](C)O)[C@@H](C)O)C(=O)N[C@@H](CC(=O)O)C(=O)N[C@@H](C)C(=O)N[C@@H](CCCNC(=N)N)C(=O)N[C@@H](C)C(=O)N[C@@H](C)C(=O)N[C@@H](CCCCNC(=O)COCCOCCNC(=O)COCCOCCNC(=O)CC[C@H](NC(=O)CCCCCCCCCCCCCCCCCCC(=O)O)C(=O)O)C(=O)N[C@@H](CC(=O)O)C(=O)N[C@@H](Cc1ccccc1)C(=O)N[C@H](C(=O)N[C@@H](CCCCN=[N+]=[N-])C(=O)N[C@@H](Cc1c[nH]c2ccccc12)C(=O)N[C@@H](CC(C)C)C(=O)N[C@@H](CCS(C)(=O)=O)C(=O)N[C@@H](CC(=O)O)C(=O)N[C@H](C(N)=O)[C@@H](C)O)C(C)C [PEP31] | 3.1 |  |
|  |  | CCCCCCCCCCCCCCCC(=O)N[C@@H](CCC(=O)N[C@@H](CCC(=O)NCCCC[C@H](NC(=O)[C@H](CC(=O)O)NC(=O)[C@H](CO)NC(=O)[C@@H](NC(=O)[C@H](Cc1ccccc1)NC(=O)[C@@H](NC(=O)CNC(=O)[C@H](CCC(N)=O)NC(=O)[C@@H](CO)NC(=O)[C@@H](N)Cc1c[nH]cn1)[C@@H](C)O)[C@@H](C)O)C(=O)N[C@@H](CO)C(=O)N[C@@H](CCCCN)C(=O)N[C@@H](Cc1ccc(O)cc1)C(=O)N[C@@H](CC(C)C)C(=O)N[C@@H](CC(=O)O)C(=O)N[C@@H](CCC(=O)O)C(=O)N[C@@H](CCCNC(=N)N)C(=O)N[C@@H](C)C(=O)N[C@@H](C)C(=O)N[C@@H](CCC(N)=O)C(=O)N[C@@H](CC(=O)O)C(=O)N[C@@H](Cc1ccccc1)C(=O)N[C@H](C(=O)N[C@@H](CCC(N)=O)C(=O)N[C@@H](Cc1c[nH]c2ccccc12)C(=O)N[C@@H](CC(C)C)C(=O)N[C@@H](CC(C)C)C(=O)N[C@@H](CC(=O)O)C(=O)N[C@H](C(N)=O)[C@@H](C)O)C(C)C)C(=O)O)C(=O)O [PEP76, reference compound] |  | Ratio GCGR/GLP1R (human GCGR; Table 7, control molecules): 1.3 |
